This passage reports IC50 results from US20240101572A1, “DIHYDROOXADIAZINONE COMPOUND AND PHARMACEUTICAL USE THEREOF” (Japan Tobacco Inc., priority 2022, published 2024).

One test addresses full-length human PLD1 (Homo sapiens (Human), UniProt Q13393). As to the kind of experiment: Evaluation of human PLD1 enzyme inhibitory activity (Amplex Red / choline oxidase fluorescence). Format: biochemical. To be noted: full-length human PLD1 enzyme; read-out: PLD1 IC50. A digest of the protocol: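 Fluorescence read-out couples choline to Amplex Red via choline oxidase and peroxidase after a 60 min room-temperature reaction. Enzyme: FLAG-tagged full-length human PLD1 from Expi293F cells, anti-FLAG purified; substrate diheptanoyl phosphatidylcholine; HEPES pH 7.5 assay buffer with 0.01% NP-40, 0.1% BSA, 5% DMSO final.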

The target of another test is full-length human PLD2 (Homo sapiens (Human), UniProt O14939). In words: Evaluation of human PLD2 enzyme inhibitory activity (Amplex Red / choline oxidase fluorescence). The class given is biochemical. Conditions: full-length human PLD2 enzyme; read-out: PLD2 IC50. The essentials:
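Released choline was read by Amplex Red fluorescence coupled to choline oxidase and HRP after a 60 min room-temperature reaction. Substrate was diheptanoyl phosphatidylcholine, added as a 6 mmol/L solution, and enzyme was FLAG-tagged full-length human PLD2 from Expi293F, added as a 6 nmol/L solution. Buffer was 50 mM HEPES pH 7.5 with 5% final DMSO.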

A value given as a limit tells only on which side of the number the result lay.

Chain of full-length human PLD1 (Q13393 other isoform, or with tags, fused parts or gaps): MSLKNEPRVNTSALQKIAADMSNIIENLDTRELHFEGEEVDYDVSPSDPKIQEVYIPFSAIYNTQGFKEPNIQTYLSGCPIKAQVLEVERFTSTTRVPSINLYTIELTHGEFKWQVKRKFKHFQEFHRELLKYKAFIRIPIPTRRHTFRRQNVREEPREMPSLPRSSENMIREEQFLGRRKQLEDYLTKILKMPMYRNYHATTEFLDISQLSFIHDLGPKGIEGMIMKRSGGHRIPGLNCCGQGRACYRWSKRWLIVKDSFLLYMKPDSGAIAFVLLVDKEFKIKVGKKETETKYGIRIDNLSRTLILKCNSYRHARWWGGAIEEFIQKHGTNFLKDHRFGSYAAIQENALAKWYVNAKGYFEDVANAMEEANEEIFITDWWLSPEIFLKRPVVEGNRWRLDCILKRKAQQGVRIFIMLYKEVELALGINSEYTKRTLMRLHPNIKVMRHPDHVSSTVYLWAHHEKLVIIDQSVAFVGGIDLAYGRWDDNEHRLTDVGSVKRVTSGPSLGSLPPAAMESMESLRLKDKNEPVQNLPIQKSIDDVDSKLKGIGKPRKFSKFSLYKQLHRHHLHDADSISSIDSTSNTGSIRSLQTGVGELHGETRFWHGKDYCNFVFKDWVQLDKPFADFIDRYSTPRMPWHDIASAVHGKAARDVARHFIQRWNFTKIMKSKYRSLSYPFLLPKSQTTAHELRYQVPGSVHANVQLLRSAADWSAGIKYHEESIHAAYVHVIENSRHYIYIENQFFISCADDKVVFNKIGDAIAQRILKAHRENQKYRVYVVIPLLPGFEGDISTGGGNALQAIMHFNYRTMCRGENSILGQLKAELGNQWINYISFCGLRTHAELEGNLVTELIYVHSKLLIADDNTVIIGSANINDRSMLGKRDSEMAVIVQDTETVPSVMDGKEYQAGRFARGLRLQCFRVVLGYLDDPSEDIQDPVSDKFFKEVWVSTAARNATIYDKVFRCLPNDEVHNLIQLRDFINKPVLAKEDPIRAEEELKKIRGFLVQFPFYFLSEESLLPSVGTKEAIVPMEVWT
Chain of full-length human PLD2 (O14939 whole entry): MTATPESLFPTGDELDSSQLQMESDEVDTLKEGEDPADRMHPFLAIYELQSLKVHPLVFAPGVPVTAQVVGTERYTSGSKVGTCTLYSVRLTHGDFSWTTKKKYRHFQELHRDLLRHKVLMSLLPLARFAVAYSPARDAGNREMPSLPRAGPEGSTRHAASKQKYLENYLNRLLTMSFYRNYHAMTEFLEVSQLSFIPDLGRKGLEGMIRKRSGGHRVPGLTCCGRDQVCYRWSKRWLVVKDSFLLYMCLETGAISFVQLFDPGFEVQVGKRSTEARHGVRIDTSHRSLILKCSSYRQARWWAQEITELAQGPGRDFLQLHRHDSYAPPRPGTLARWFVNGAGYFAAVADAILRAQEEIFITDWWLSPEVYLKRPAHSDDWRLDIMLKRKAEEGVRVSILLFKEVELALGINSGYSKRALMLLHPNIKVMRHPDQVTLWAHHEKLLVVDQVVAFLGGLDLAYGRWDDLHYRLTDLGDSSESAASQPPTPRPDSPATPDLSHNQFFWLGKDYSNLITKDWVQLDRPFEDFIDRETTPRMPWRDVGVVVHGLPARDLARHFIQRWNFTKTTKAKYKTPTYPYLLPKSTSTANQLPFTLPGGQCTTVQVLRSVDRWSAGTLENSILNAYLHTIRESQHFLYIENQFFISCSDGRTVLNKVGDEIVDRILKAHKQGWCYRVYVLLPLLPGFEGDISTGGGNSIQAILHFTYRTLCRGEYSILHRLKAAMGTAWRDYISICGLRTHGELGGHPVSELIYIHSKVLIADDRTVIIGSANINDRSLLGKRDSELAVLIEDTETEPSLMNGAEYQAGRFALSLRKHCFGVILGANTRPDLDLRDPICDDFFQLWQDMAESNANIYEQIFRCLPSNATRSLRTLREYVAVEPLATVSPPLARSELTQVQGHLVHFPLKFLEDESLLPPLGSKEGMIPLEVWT

Regarding `C[C@@H](C[C@H]1CC[C@]2(CC1)OC(=O)NN=C2c1ccc(F)cc1Br)NC(=O)c1cn(C)nn1` [Example 76], the IC50 on full-length human PLD1 and at full-length human PLD2 was 17 nM in each case.
On to `CCCS(=O)(=O)c1ccc(C2=NNC(=O)O[C@]23CC[C@@H](C[C@H](C)NC(=O)C(=O)NC)CC3)c(Cl)c1` [Example 77], for which the concentration for half-maximal inhibition (IC50) on full-length human PLD1 is 26 nM; at full-length human PLD2, below 10 nM.
For `C[C@@H](C[C@H]1CC[C@]2(CC1)OC(=O)NN=C2c1ccccc1S(C)(=O)=O)NC(=O)c1cc(Cl)no1` [Example 78] the same measures were 350 nM and 252 nM.
For `CSc1ccccc1C1=NNC(=O)O[C@]12CC[C@@H](C[C@H](C)NC(=O)c1cc(Cl)no1)CC2` [Example 79] the same measures were below 10 nM and below 10 nM.
As for `CNC(=O)C(=O)N[C@@H](C)C[C@H]1CC[C@]2(CC1)OC(=O)NN=C2c1ccc(OC(F)(F)F)cc1Br` [Example 80], the IC50 on full-length human PLD1 and on full-length human PLD2 was below 10 nM in each case.
`C[C@@H](C[C@H]1CC[C@]2(CC1)OC(=O)NN=C2c1ccc(OC(F)(F)F)cc1Br)NC(=O)c1cc(Cl)no1` [Example 81]: the 50% inhibitory concentration (IC50) was 12 nM on full-length human PLD1 and below 10 nM on full-length human PLD2.
On to `CNC(=O)C(=O)N[C@@H](C)C[C@H]1CC[C@]2(CC1)OC(=O)NN=C2c1nccn1CC1CC1` [Example 82], for which the half-maximal inhibitory concentration (IC50) on full-length human PLD1 came to 421 nM; on full-length human PLD2, 358 nM.
The like results for `C[C@@H](C[C@H]1CC[C@]2(CC1)OC(=O)NN=C2c1nccn1CC1CC1)NC(=O)c1cc(Cl)no1` [Example 83] were, in that order, 259 nM and 221 nM.
For `C[C@@H](C[C@H]1CC[C@]2(CC1)OC(=O)NN=C2c1nccn1CC1CC1)NC(=O)c1cc2ccccc2o1` [Example 84] the same measures were 70 nM and 53 nM.
For `CNC(=O)C(=O)N[C@@H](C)C[C@H]1CC[C@]2(CC1)OC(=O)NN=C2c1ccc(OCC(F)F)cc1Br` [Example 85] the same measures were 12 nM and below 10 nM.
Turning to `CNC(=O)C(=O)N[C@@H](C)C[C@H]1CC[C@]2(CC1)OC(=O)NN=C2c1ccc(OCC(F)(F)F)cc1Br` [Example 86], the figures for the half-inhibitory concentration (IC50) at full-length human PLD1 and at full-length human PLD2 were 13 nM and below 10 nM, respectively.
The like results for `C[C@@H](C[C@H]1CC[C@]2(CC1)OC(=O)NN=C2c1ccc(OC(F)(F)F)cc1Br)NC(=O)c1cc2ccccc2o1` [Example 87] were, in that order, 39 nM and below 10 nM.
Take `Cc1cc(F)ccc1C1=NNC(=O)O[C@]12CC[C@@H](C[C@H](C)NC(=O)c1ccc(Cl)cc1F)CC2` [Example 88]: the figures for the IC50 at full-length human PLD1 and on full-length human PLD2 were 56 nM and 65 nM, respectively.
For `Cc1cc(F)ccc1C1=NNC(=O)O[C@]12CC[C@@H](C[C@H](C)NC(=O)c1ccc(Cl)cn1)CC2` [Example 89] the same measures were 38 nM and 37 nM.
`CNC(=O)C(=O)N[C@@H](C)CN1CCC2(CC1)OC(=O)NN=C2c1ccc(F)cc1Cl` [Example 90]: the IC50 is 45 nM on full-length human PLD1 and 18 nM on full-length human PLD2.
The like results for `C[C@@H](CN1CCC2(CC1)OC(=O)NN=C2c1ccc(F)cc1Cl)NC(=O)c1cc2cc(F)ccc2o1` [Example 91] were, in that order, 23 nM and 15 nM.
The like results for `C[C@@H](CN1CCC2(CC1)OC(=O)NN=C2c1ccc(F)cc1Cl)NC(=O)c1cc(Cl)no1` [Example 92] were, in that order, 26 nM and 13 nM.
For `Cc1cc(C(=O)N[C@@H](C)CN2CCC3(CC2)OC(=O)NN=C3c2ccc(F)cc2Cl)[nH]n1` [Example 93] the same measures were 32 nM and below 10 nM.
On to `C[C@@H](CN1CCC2(CC1)OC(=O)NN=C2c1ccc(F)cc1Cl)NC(=O)c1cn(C)nn1` [Example 94], for which the IC50 amounted to 68 nM at full-length human PLD1 and 60 nM on full-length human PLD2.
For the compound `C[C@@H](CN1CCC2(CC1)OC(=O)NN=C2c1ccc(F)cc1Cl)NC(=O)c1ncn[nH]1` [Example 95], the IC50 at full-length human PLD1 was 8060 nM; at full-length human PLD2, 6160 nM.
For `CNC(=O)C(=O)N[C@@H](C)C[C@H]1CC[C@]2(CC1)OC(=O)NN=C2c1ccc(C(C)(C)O)cc1Br` [Example 96] the same measures were 18 nM and below 10 nM.
Consider `C[C@@H](C[C@H]1CC[C@]2(CC1)OC(=O)NN=C2c1ccc(C(C)(C)O)cc1Br)NC(=O)c1cc(Cl)no1` [Example 97], for which the concentration for half-maximal inhibition (IC50) at full-length human PLD1 and on full-length human PLD2 was below 10 nM throughout.
Regarding `Cc1cc(C(=O)N[C@@H](C)CN2CCC3(CC2)OC(=O)NN=C3c2ccc(F)cc2Cl)no1` [Example 98], the values for the IC50 on full-length human PLD1 and on full-length human PLD2 were 57 nM and 78 nM, respectively.
The like results for `C[C@@H](CN1CCC2(CC1)OC(=O)NN=C2c1ccc(F)cc1Cl)NC(=O)c1cc(C(F)(F)F)on1` [Example 99] were, in that order, 241 nM and 373 nM.
For `C[C@@H](CN1CCC2(CC1)OC(=O)NN=C2c1ccc(F)cc1Cl)NC(=O)c1cc(C(F)(F)F)[nH]n1` [Example 100] the same measures were 41 nM and 33 nM.
The like results for `Cc1cc(F)ccc1C1=NNC(=O)O[C@]12CC[C@@H](C[C@H](C)NC(=O)N1Cc3ccccc3C1)CC2` [Example 101] were, in that order, below 10 nM and below 10 nM.
Turning to `CNC(=O)C(=O)N[C@@H](C)C[C@H]1CC[C@]2(CC1)OC(=O)NN=C2c1cccnc1C` [Example 102], the IC50 at full-length human PLD1 was 288 nM; at full-length human PLD2, 666 nM.
For `Cc1ncccc1C1=NNC(=O)O[C@]12CC[C@@H](C[C@H](C)NC(=O)c1cc(Cl)no1)CC2` [Example 103] the same measures were 170 nM and 379 nM.
With `Cc1ncccc1C1=NNC(=O)O[C@]12CC[C@@H](C[C@H](C)NC(=O)c1cc3ccccc3o1)CC2` [Example 104], the results for the IC50 at full-length human PLD1 and on full-length human PLD2 were 75 nM and 217 nM, respectively.
For `CNC(=O)C(=O)N[C@@H](C)C[C@H]1CC[C@]2(CC1)OC(=O)NN=C2c1ccccc1OC(F)(F)F` [Example 105] the same measures were 27 nM and 41 nM.
The like results for `CNC(=O)C(=O)N[C@@H](C)C[C@H]1CC[C@]2(CC1)OC(=O)NN=C2c1cccc2c1OCC2` [Example 106] were, in that order, 26 nM and 48 nM.
Consider `Cc1cc(C(=O)N[C@@H](C)C[C@H]2CC[C@]3(CC2)OC(=O)NN=C3c2cccc3c2OCC3)[nH]n1` [Example 107], for which the 50% inhibitory concentration (IC50) is 85 nM at full-length human PLD1 and 139 nM at full-length human PLD2.
As for `C[C@@H](C[C@H]1CC[C@]2(CC1)OC(=O)NN=C2c1cccc2c1OCC2)NC(=O)c1cc(Cl)no1` [Example 108], the IC50 on full-length human PLD1 is 25 nM; on full-length human PLD2, 38 nM.
For `C[C@@H](C[C@H]1CC[C@]2(CC1)OC(=O)NN=C2c1ccc(C#N)cc1Br)NC(=O)N1Cc2ccccc2C1` [Example 109] the same measures were 12 nM and below 10 nM.
Turning to `Cc1cc(C(=O)N[C@@H](C)C[C@H]2CC[C@]3(CC2)OC(=O)NN=C3c2ccccc2OC(F)(F)F)[nH]n1` [Example 110], the half-inhibitory concentration (IC50) at full-length human PLD1 stood at 83 nM; at full-length human PLD2, 99 nM.
For `C[C@@H](C[C@H]1CC[C@]2(CC1)OC(=O)NN=C2c1ccccc1OC(F)(F)F)NC(=O)c1cc(Cl)no1` [Example 111] the same measures were 17 nM and 21 nM.
The like results for `CNC(=O)C(=O)N[C@@H](C)C[C@H]1CC[C@]2(CC1)OC(=O)NN=C2c1cnccc1C` [Example 112] were, in that order, 31 nM and 20 nM.
